The source of these data is the supplement of paper PMC6045584.

Compound in one experiment: COc1cc2c(cc1O)CC[C@@H]1[C@@H]2CC[C@]2(C)[C@@H](O)CC[C@@H]12 [2-METHOXYESTRADIOL]
Description: surviving fraction relative to DMSO-only wells; higher = less growth inhibition. As to conditions: exposure time: 5 days. The method in brief: (§1)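 Luminescence normalised to the median of DMSO-only wells defines surviving fraction, with viability read by CellTiter-Glo. Signal was recorded after 10 minutes at room temperature, once log-phase tumour cell lines seeded at 250–500 cells per well in 384-well plates had spent 24 hours settling and then five days under continuous exposure to inhibitors at 0.5, 1, 5, 10, 50, 100, 500 and 1000 nM.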

Compound in the next experiment: C=CCNC1=C2C[C@@H](C)C[C@H](OC)[C@H](O)[C@@H](C)/C=C(\C)[C@H](OC(N)=O)[C@@H](OC)/C=C\C=C(/C)C(=O)NC(=CC1=O)C2=O [17-AAG]
Described as above. As to conditions: exposure time: 5 days. The method in brief:
as §1

± gives the standard deviation of the averaged measurements.

SG28 HEADNECK: the surviving fraction was 1.07 ± 0.037 with 2-METHOXYESTRADIOL (0.5 nM); 1.18 ± 0.096 with 2-METHOXYESTRADIOL (1 nM); 0.94 ± 0.0042 with 2-METHOXYESTRADIOL (5 nM); 1.11 ± 0.016 in the experiment with 2-METHOXYESTRADIOL (10 nM); 1.11 ± 0.13 with 2-METHOXYESTRADIOL (50 nM); 1.06 ± 0.048 with 2-METHOXYESTRADIOL (100 nM). Further, the surviving fraction with 2-METHOXYESTRADIOL (500 nM) was determined as 1.06 ± 0.066; with 2-METHOXYESTRADIOL (1000 nM), 1.02 ± 0.064; in the experiment with 17-AAG (0.5 nM) it was 0.93 ± 0.048; with 17-AAG (1 nM), 0.918 ± 0.069; with 17-AAG (5 nM) it was 0.86 ± 0.05; with 17-AAG (10 nM), 0.776 ± 0.064. For the same test system, the surviving fraction was determined as 0.551 ± 0.11 with 17-AAG (50 nM), 0.322 ± 0.016 with 17-AAG (100 nM), 0.0967 ± 0.014 with 17-AAG (500 nM) and 0.0863 ± 0.0032 with 17-AAG (1000 nM).
For MDAMB436 BREAST, the surviving fraction in the experiment with 2-METHOXYESTRADIOL (0.5 nM) worked out at 0.944 ± 0.012; with 2-METHOXYESTRADIOL (1 nM) it was 0.951 ± 0.19; with 2-METHOXYESTRADIOL (5 nM), 1 ± 0.016; with 2-METHOXYESTRADIOL (10 nM), 0.953 ± 0.065; with 2-METHOXYESTRADIOL (50 nM), 0.956 ± 0.065; with 2-METHOXYESTRADIOL (100 nM) it was 0.971 ± 0.045. The surviving fraction with 2-METHOXYESTRADIOL (500 nM) turned out to be 0.779 ± 0.12; with 2-METHOXYESTRADIOL (1000 nM) it was 0.62 ± 0.079; in the experiment with 17-AAG (0.5 nM), 0.801 ± 0.045; with 17-AAG (1 nM), 0.797 ± 0.073; with 17-AAG (5 nM) it was 0.749 ± 0.077; in the experiment with 17-AAG (10 nM), 0.581 ± 0.039. The surviving fraction with 17-AAG (50 nM) was found to be 0.318 ± 0.027; with 17-AAG (100 nM), 0.344 ± 0.033; with 17-AAG (500 nM), 0.328 ± 0.042; with 17-AAG (1000 nM), 0.352 ± 0.015.
MDAMB157 BREAST: the surviving fraction came to 0.873 ± 0.086 with 2-METHOXYESTRADIOL (0.5 nM); 0.947 ± 0.022 in the experiment with 2-METHOXYESTRADIOL (1 nM); 0.935 ± 0.05 with 2-METHOXYESTRADIOL (5 nM); 0.983 ± 0.12 with 2-METHOXYESTRADIOL (10 nM); 0.959 ± 0.012 with 2-METHOXYESTRADIOL (50 nM); 0.932 ± 0.013 in the experiment with 2-METHOXYESTRADIOL (100 nM). The surviving fraction with 2-METHOXYESTRADIOL (500 nM) turned out to be 0.76 ± 0.055; in the experiment with 2-METHOXYESTRADIOL (1000 nM), 0.31 ± 0.066; with 17-AAG (0.5 nM) it was 0.897 ± 0.082; in the experiment with 17-AAG (1 nM), 0.854 ± 0.053; with 17-AAG (5 nM) it was 0.848 ± 0.18; with 17-AAG (10 nM) it was 0.482 ± 0.098. Moreover, the surviving fraction with 17-AAG (50 nM) is 0.233 ± 0.018; with 17-AAG (100 nM) it was 0.214 ± 0.038; in the experiment with 17-AAG (500 nM) it was 0.163 ± 0.024; in the experiment with 17-AAG (1000 nM), 0.147 ± 0.008.
With HT1080 SOFT TISSUE, the surviving fraction in the experiment with 2-METHOXYESTRADIOL (0.5 nM) turned out to be 1.01 ± 0.011; with 2-METHOXYESTRADIOL (1 nM) it was 1.02 ± 0.018; with 2-METHOXYESTRADIOL (5 nM) it was 1.05 ± 0.016; in the experiment with 2-METHOXYESTRADIOL (10 nM), 0.987 ± 0.058; with 2-METHOXYESTRADIOL (50 nM) it was 1.01 ± 0.043; in the experiment with 2-METHOXYESTRADIOL (100 nM) it was 0.999 ± 0.033. The surviving fraction with 2-METHOXYESTRADIOL (500 nM) was 0.756 ± 0.049; with 2-METHOXYESTRADIOL (1000 nM) it was 0.313 ± 0.028; with 17-AAG (0.5 nM) it was 0.969 ± 0.031; with 17-AAG (1 nM) it was 1 ± 0.061; with 17-AAG (5 nM) it was 1.08 ± 0.015; in the experiment with 17-AAG (10 nM), 1.048 ± 0.01. The surviving fraction was determined as 0.389 ± 0.017 with 17-AAG (50 nM), 0.204 ± 0.028 with 17-AAG (100 nM), 0.148 ± 0.0085 in the experiment with 17-AAG (500 nM) and 0.146 ± 0.0015 with 17-AAG (1000 nM).
CME SYNOVIAL: the surviving fraction stood at 1.17 ± 0.12 with 2-METHOXYESTRADIOL (0.5 nM); 1.01 ± 0.079 with 2-METHOXYESTRADIOL (1 nM); 1.19 ± 0.026 with 2-METHOXYESTRADIOL (5 nM); 1.08 ± 0.014 in the experiment with 2-METHOXYESTRADIOL (10 nM); 1.26 ± 0.11 with 2-METHOXYESTRADIOL (50 nM); 1.16 ± 0.15 with 2-METHOXYESTRADIOL (100 nM). Besides, the surviving fraction amounted to 0.711 ± 0.14 in the experiment with 2-METHOXYESTRADIOL (500 nM); 0.38 ± 0.027 in the experiment with 2-METHOXYESTRADIOL (1000 nM); 0.9 ± 0.14 with 17-AAG (0.5 nM); 0.767 ± 0.024 with 17-AAG (1 nM); 1.01 ± 0.12 with 17-AAG (5 nM); 0.896 ± 0.13 in the experiment with 17-AAG (10 nM). Also, the surviving fraction with 17-AAG (50 nM) was 0.259 ± 0.033; in the experiment with 17-AAG (100 nM), 0.222 ± 0.015; with 17-AAG (500 nM), 0.239 ± 0.029; with 17-AAG (1000 nM) it was 0.306 ± 0.032.
